Patent publication US20070027175A1, “Antineoplastic activities of ellipticine and its derivatives” (priority 2005, published 2007)

Tests used:
[1] = test system: myeloma cell lines (JJN3, L363, OCI-MY5, and U266); assay: MTT comparison with clinical anti-myeloma agents, four cell lines; format: cell-based, human; settings: 24 and 48 hours
Experimental: Myeloma cells were suspended in fresh medium at […] and seeded into 96-well plates in 50-μl aliquots (10,000 cells/well). After treating cells in each well with the appropriate compound (50-μl aliquots of 2× stock solution) and medium control, the methylthiazolyldiphenyl-tetrazolium bromide (MTT) assay kit (Promega, Madison, Wis.) was used to determine cell proliferation, according to manufacturer's instructions. Briefly, dye solution was added to each well (15 μl/well) and incubated for 4 hours at 37° C. and 5% CO2; 100 μl of the solubilization solution/stop mix was then added. The plates were read at 570 nm in a plate reader, and the A570 nm values were corrected by A650 nm. All experiments were conducted in triplicate.
In vitro comparison of EPED3 to ellipticine and four anti-myeloma agents commonly used in clinical treatment regimens was carried out with four myeloma cell lines (JJN3, L363, OCI-MY5, and U266). EPED3, ellipticine, Dox, dexamethasome, VP-16-213, and Velcade were applied in a two-fold dilution series ranging from 0.1 to 6.4 μM. Cell proliferation was assessed using MTT assays 24 and 48 hours after initiating treatments.

[2] = test system: 8226/Dox1V cells; assay: Drug resistance and cytotoxicity MTT assay, 8226/Dox1V; format: cell-based, human
Experimental: (§1) FIGS. 13A-13B show dose response of RPMI 8226 and 8226/Dox1V myeloma cells to EPED3 (FIG. 13A) or Dox (FIG. 13B). Cells were incubated for 96 hours with drug concentrations as indicated and analyzed by MTT assays; linear regression analysis was used to determine the IC50 for each drug (EPED3, FIG. 13A; Dox, FIG. 13B) and each cell line (RPMI8226, squares; 8226/Dox1V, circles). Data are presented as the mean of four independent experiments.
The 8226/Dox1V cell line was established by chronic exposure to Dox in presence of P-glycoprotein inhibitor, verapamil and was characterized by reduced expression and activity of topo II (Futscher et al., 1993).
(§2) The 8226/Dox1V and its parental line, RPMI 8226, cells were plated in 96-well plates at 10,000 cells/well and incubated with serial dilutions of EPED3 or Dox, as previously described (Landowski et al., 1999). After 96 hours incubation at 37° C., MTT was added to each well at a final concentration of 20 μg/ml and incubated an additional 4 hours. Plates were centrifuged and the media replaced with 0.1 ml DMSO to solublize the formazan complex. Optical density was measured at 540 nm using a Bio-Tek microplate spectrophotometer. IC50 values were calculated by linear regression analysis (Origins® Software Technologies, Inc.) of the log-linear plot for percent survival versus log drug concentration.
In drug resistance studies, the efficacy of EPED3 with 8226/Dox1V cells and the parental line, RPMI 8226 cells was investigated. Both cell lines were treated with either EPED3 or Dox, and the MTT assays were used to assess cell growth. Linear regression analysis of 96-hour dose-response curves was used to compare cytotoxicity of EPED3 in 8226/Dox1V and RPMI 8226 cell lines.

[3] = test system: RPMI 8226 cells; assay: Drug resistance and cytotoxicity MTT assay, RPMI 8226; format: cell-based, human; settings: 96 hours
Experimental: as §1, §2
In drug resistance studies, the efficacy of EPED3 with 8226/Dox1V cells and the parental line, RPMI 8226 cells was investigated. Both cell lines were treated with either EPED3 or Dox, and the MTT assays were used to assess cell growth. […]

[4] = test system: NCI-60 cancer panel; settings: average across the cell lines of the concentration at which growth is inhibited 50%; unit in the High Conc. footnote; cited from earlier work
[5] = test system: Fetal bone mesenchymal cells; assay: Selectivity: viability of normal fetal bone mesenchymal cells (CellTiter-Glo); format: cell-based, human; settings: 0.01-1.0 mM; five days
Experimental: The cell viability was tested every day for a period of five days. It was observed that these cells were not killed by the concentrations that were otherwise toxic to the myeloma cells.
Fetal bone mesenchymal cells were contacted with NSC 338258 in ninety six well culture plates. The concentrations of NSC 338258 were set at 0.01, 0.03. 0.1, 0.3 and 1.0 mM (FIG. 7).

[6] = test system: human fetal bone mesenchymal cells; assay: Morphology of mesenchymal cells in co-culture; format: cell-based; settings: co-culture without direct contact; EPED3 2 mM, Velcade 0.5 mM
Experimental: FIGS. 11A-11F compare the morphological features of EPED3 and Velcade induced apoptosis in myeloma cells and normal mesenchymal cells. JJN3 myeloma cell line and human fetal bone mesenchymal cells were co-cultured without direct contact between cell types. EPED3 (2 mM) and Velcade (0.5 mM) were added to the cultures; control cells were untreated. Live cell cultures were photographed 3 days after initiating treatment (400× magnification under Olympus invert-microscope with RT-Color SPOT digital camera and the software, Diagnostic Instrument Inc. Sterling Heights, Mich.). In comparison to cell morphology of non-treated JJN3 cells, myeloma cells were destroyed under both EPED3 (FIG. 11E) and Velcade (FIG. 11F) treatments as the appearance of cell shrinkage, and the formation of phagozytosed apoptotic bodies (arrows); in comparison to no treatment, mesenchymal cells were also destroyed by Velcade treatment as the appearance of cell shrinkage, and the formation of phagozytosed apoptotic bodies (arrows) (FIG. 1C) but not by EPED3 treatment (FIG. 11B).
The monolayer human fetal bone mesenchymal cells were established from live bone chips (Advanced Bioscience Resources Inc, Alameda, Calif.) in complete RPMI-1640 medium. The medium was the same as described above. The cells were trypsinized and seeded in 6-well plates, and then allowed to reach 75% confluence. […]

SMILES	concentration at which cell viability is inhibited as effectively as Velcade [1]	IC50 ([2]; 8226/Dox1V, 96 hours)	resistance of 8226/Dox1V versus parental RPMI 8226 ([2]; ratio of IC50, 96 hours)	IC50 [3]	Mean GI50 [4]	killing of fetal bone derived normal mesenchymal cells [5]	morphological damage of mesenchymal cells [6]
Cc1c2ccncc2c(C)c2c1[nH]c1ccc(OCCN(C)C)cc12 [NSC 338258, ellipticine, 9-dimethyl amino-ethoxy-]	0.4 µM	131 nM	no significant resistance	150 nM	−6.57 log^10 molar	not killed	
CC(C)C[C@H](NC(=O)[C@H](Cc1ccccc1)NC(=O)c1cnccn1)B(O)O [Velcade, bortezomib, reference compound]							severe destruction of the mesenchymal cells
